One block for each compound: values may come before it.
Experiments:
[1] = target: T1, Or85d (pb3B) (Drosophila melanogaster, UniProt Q9VHQ2); test: single sensillum recording (SSR), dose-response; conditions: native pb3B neuron, agonist; odor dilution
T1 construct: native receptor in pb3B maxillary palp neuron of wild-type flies; with Odorant receptor coreceptor
T1 sequence (Q9VHQ2 1-412): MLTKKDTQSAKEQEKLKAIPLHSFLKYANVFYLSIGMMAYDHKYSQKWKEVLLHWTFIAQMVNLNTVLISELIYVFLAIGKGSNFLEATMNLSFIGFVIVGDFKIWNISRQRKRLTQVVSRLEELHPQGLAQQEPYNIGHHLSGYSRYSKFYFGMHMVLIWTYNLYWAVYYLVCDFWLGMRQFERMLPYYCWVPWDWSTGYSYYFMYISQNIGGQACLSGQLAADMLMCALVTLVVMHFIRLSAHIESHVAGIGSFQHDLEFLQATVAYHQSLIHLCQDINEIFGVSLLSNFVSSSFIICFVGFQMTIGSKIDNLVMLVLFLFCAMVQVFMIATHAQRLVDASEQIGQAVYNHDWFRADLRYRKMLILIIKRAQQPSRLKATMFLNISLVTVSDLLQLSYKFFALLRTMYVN
T1 sequence (Q9VNB5 1-486 partner): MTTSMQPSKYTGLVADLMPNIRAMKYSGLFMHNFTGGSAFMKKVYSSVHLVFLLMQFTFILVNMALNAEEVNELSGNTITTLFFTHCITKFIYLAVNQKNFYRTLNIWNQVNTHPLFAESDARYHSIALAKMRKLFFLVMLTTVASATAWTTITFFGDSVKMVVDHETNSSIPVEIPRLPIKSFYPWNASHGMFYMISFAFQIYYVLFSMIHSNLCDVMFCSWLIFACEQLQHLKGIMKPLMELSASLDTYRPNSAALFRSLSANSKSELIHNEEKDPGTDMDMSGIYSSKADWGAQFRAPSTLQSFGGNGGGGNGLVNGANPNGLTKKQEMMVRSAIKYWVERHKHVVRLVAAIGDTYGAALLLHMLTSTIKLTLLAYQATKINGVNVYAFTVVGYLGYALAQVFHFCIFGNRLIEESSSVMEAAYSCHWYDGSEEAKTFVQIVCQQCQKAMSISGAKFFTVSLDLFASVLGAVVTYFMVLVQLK
Source text: single sensillum recording (SSR), dose-response on Or85d (pb3B)

[2] = target: T2, Or71a (pb1B) (Drosophila melanogaster, UniProt Q9VUK5); test: single sensillum recording (SSR), dose-response; conditions: native pb1B neuron, agonist; odor dilution
T2 construct: native receptor in pb1B maxillary palp neuron of wild-type flies; with Odorant receptor coreceptor
T2 sequence (Q9VUK5 1-378): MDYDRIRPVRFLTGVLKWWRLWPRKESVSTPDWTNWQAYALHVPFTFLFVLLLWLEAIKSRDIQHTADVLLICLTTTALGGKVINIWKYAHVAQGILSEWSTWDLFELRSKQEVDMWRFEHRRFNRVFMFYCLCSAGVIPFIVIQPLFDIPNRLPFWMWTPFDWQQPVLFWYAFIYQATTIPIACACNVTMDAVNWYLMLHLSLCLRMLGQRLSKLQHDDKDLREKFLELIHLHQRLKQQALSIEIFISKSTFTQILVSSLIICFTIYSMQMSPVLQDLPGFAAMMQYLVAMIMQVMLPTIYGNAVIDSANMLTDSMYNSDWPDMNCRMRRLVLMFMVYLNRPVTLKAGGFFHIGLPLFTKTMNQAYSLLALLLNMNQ
T2 sequence (Q9VNB5 1-486 partner): T1 sequence (Q9VNB5 1-486 partner)
Source text: single sensillum recording (SSR), dose-response on Or71a (pb1B)

[3] = target: T3, Or42a (pb1A) (Drosophila melanogaster, UniProt Q9V9I2); test: single sensillum recording (SSR), dose-response; conditions: native pb1A neuron, agonist; odor dilution
T3 construct: native receptor in pb1A maxillary palp neuron of wild-type flies; neuron-receptor match not tested by expression; with Odorant receptor coreceptor
T3 sequence (Q9V9I2 1-406): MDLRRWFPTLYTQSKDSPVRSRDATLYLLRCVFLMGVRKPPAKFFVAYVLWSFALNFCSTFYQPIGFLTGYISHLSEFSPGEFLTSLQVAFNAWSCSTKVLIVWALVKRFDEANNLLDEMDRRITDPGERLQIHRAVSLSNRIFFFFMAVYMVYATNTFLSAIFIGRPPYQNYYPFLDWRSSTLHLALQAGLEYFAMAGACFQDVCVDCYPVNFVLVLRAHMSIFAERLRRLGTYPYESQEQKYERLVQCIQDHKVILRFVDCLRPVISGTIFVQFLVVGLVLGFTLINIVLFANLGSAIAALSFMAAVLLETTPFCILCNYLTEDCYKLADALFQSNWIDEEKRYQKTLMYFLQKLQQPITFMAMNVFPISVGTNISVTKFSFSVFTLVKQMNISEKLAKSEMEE
T3 sequence (Q9VNB5 1-486 partner): T1 sequence (Q9VNB5 1-486 partner)
Source text: single sensillum recording (SSR), dose-response on Or42a (pb1A)

[4] = target: T4, Or85a (Drosophila melanogaster, UniProt Q9VHS4); test: SSR and GC-SSR, dose-response; conditions: native antennal ab2B neuron, agonist; odor dilution
T4 construct: native receptor in antennal ab2B neuron of wild-type flies; with Odorant receptor coreceptor
T4 sequence (Q9VHS4 1-397): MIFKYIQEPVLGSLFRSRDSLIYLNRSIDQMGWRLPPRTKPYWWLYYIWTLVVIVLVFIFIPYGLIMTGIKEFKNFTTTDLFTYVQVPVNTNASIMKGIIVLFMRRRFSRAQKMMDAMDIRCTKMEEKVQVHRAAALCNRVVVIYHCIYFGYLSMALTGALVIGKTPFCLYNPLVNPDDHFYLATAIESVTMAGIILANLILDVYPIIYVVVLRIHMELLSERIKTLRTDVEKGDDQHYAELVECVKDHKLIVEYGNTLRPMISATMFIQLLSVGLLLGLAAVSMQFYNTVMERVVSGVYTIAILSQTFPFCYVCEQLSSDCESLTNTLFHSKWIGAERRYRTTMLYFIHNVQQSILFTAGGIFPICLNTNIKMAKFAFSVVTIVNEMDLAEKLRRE
T4 sequence (Q9VNB5 1-486 partner): T1 sequence (Q9VNB5 1-486 partner)

[5] = target: T5, Or59c (pb3A) (Drosophila melanogaster, UniProt Q9W1P7); test: single sensillum recording (SSR), dose-response; conditions: native pb3A neuron, agonist; odor dilution
T5 construct: native receptor in pb3A maxillary palp neuron of wild-type flies; with Odorant receptor coreceptor
T5 sequence (Q9W1P7 1-411): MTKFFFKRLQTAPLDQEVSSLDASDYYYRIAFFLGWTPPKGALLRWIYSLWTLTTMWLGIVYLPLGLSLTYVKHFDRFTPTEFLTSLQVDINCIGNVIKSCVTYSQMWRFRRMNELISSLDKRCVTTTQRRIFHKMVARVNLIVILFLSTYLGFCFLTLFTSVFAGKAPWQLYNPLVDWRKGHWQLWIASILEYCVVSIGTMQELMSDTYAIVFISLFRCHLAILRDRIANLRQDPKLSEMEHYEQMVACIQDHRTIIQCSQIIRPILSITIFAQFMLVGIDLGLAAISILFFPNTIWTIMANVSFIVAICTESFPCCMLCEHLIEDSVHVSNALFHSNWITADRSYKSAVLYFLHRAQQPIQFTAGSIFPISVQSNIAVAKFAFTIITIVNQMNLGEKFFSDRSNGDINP
T5 sequence (Q9VNB5 1-486 partner): T1 sequence (Q9VNB5 1-486 partner)
Source text: single sensillum recording (SSR), dose-response on Or59c (pb3A)

[6] = target: T6, Or67a (Drosophila melanogaster, UniProt Q9VT08); test: SSR and GC-SSR, dose-response; conditions: native antennal neuron, agonist; odor dilution
T6 construct: native receptor in antennal neuron (ab10) of wild-type flies; with Odorant receptor coreceptor
T6 sequence (Q9VT08 1-407): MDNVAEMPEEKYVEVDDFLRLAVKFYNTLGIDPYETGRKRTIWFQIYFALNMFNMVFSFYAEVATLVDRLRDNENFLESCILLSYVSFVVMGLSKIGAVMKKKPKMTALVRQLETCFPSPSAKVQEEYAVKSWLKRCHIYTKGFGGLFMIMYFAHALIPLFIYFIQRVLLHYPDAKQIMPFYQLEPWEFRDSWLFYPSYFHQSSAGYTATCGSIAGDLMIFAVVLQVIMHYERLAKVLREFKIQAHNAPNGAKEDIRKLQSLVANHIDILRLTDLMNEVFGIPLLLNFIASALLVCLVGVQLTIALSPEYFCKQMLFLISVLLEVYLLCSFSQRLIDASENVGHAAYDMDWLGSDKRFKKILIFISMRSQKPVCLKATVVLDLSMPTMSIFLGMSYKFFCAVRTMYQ
T6 sequence (Q9VNB5 1-486 partner): T1 sequence (Q9VNB5 1-486 partner)

[7] = target: T7, Or46a (pb2B) (Drosophila melanogaster, UniProt P81919); test: single sensillum recording (SSR), dose-response; conditions: native pb2B neuron, agonist; odor dilution
T7 construct: native receptor in pb2B maxillary palp neuron of wild-type flies; with Odorant receptor coreceptor
T7 sequence (P81919 1-381): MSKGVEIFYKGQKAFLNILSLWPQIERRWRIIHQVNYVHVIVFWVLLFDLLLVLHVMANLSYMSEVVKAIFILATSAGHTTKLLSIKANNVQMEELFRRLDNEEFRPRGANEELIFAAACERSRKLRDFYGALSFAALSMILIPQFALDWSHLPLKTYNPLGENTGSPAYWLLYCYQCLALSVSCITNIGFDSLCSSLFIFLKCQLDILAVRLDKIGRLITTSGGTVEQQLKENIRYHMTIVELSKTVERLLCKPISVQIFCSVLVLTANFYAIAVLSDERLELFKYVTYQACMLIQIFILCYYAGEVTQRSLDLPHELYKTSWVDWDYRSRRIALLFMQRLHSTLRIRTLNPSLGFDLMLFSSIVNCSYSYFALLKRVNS
T7 sequence (Q9VNB5 1-486 partner): T1 sequence (Q9VNB5 1-486 partner)
Source text: single sensillum recording (SSR), dose-response on Or46a (pb2B)

Detection threshold [4]: 10^-5 dilution
Detection threshold [5]: 10^-4 dilution
Compound: CCCCOC(=O)CC(C)O (stereo not drawn) [Butyl 3-hydroxy butyrate]

Detection threshold [2]: 10^-7 dilution
Compound: C=CCc1ccc(OC)c(OC)c1 [Methyleugenol]

Detection threshold [6]: 10^-5 dilution
Detection threshold [1]: 10^-7 dilution
Compound: CCC(=O)OCCc1ccccc1 [Phenethyl propionate]

The remaining lines, values behind:

Compound: CC(=O)OCCc1ccccc1 [2-Phenethyl acetate]
Detection threshold [1]: 10^-7 dilution

Compound: CCc1ccc(O)c(OC)c1 [4-ethylguaiacol]
Detection threshold [2]: 10^-7 dilution

Compound: C=CCC(=O)CC [5-hexen-3-one]
Detection threshold [3]: 10^-7 dilution

Compound: Oc1ccccc1 [Phenol]
Detection threshold [7]: 10^-7 dilution

Reference: PMC4927298, “Olfactory channels associated with the Drosophila maxillary palp mediate short- and long-range attraction” (eLife, 2016)
